Consider one substance from publication PMC6751662, “Pharmacological and functional similarities of the human neuropeptide Y system in C. elegans challenges phylogenetic views on the FLP/NPR system” (Cell Communication and Signaling : CCS, 2019).

For one assay, the target named is T1, NPR-1 (Caenorhabditis elegans, UniProt Q18534).
T1 sequence (Q18534 1-457): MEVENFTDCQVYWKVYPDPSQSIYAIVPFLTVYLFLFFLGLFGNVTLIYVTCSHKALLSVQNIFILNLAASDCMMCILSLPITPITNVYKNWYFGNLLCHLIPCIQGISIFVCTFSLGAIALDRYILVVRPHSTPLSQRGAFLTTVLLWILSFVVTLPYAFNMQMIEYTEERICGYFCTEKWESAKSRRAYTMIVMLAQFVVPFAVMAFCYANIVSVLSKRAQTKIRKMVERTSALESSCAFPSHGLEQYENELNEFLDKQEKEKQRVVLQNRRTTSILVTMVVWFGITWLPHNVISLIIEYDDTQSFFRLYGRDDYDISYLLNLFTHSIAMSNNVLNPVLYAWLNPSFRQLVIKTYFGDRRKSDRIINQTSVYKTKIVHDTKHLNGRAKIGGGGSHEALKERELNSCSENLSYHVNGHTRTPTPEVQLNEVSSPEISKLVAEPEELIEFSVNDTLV
Briefly: cAMP reporter gene assay, Gi/o (inhibition of forskolin-induced cAMP), NPR-1. The following applies: lower = higher Gi/o activity; for cAMP assay Gi, NPR-1: 4 h, transfected HEK293, CRE-luciferase, mean of >=3 independent experiments; for cAMP, x-fold of forskolin (mean), NPR-1: inhibition of cAMP production induced by 1 µM forskolin (set to 1.00), transiently transfected HEK293 cells, mean of at least three independent experiments. The assay is classed as cell-based, C. elegans. Set-up: host or cells: HEK293. The procedure, abridged: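 Luciferase luminescence read-out, reported as fold over basal for Gs or fold of forskolin signal for Gi/o. Transiently co-transfected HEK293 cells (receptor plus CRE reporter pGL4.29) were exposed to peptides for 4 h in serum-free DMEM; Gi/o wells also held 1 μM forskolin.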

Another assay has as its target T2, QRFPR (Homo sapiens, UniProt Q96P65).
T2 construct: expressed in transfected cells; host or cells: HEK293, transient
T2 sequence (Q96P65 1-431): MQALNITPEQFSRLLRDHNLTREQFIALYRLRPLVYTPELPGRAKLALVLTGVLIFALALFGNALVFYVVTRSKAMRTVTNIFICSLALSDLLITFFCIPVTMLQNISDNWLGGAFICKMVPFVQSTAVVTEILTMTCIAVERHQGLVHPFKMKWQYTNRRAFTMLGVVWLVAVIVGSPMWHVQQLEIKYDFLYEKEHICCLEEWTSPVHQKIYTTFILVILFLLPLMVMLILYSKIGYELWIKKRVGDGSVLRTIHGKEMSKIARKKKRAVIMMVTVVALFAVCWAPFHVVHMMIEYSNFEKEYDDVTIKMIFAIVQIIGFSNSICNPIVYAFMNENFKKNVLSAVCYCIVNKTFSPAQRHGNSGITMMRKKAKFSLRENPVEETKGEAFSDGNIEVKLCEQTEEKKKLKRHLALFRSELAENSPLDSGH
Briefly: IP accumulation assay, endogenous Gαq coupling, QRFPR. The settings on record: transiently transfected HEK293 cells, mean of at least three independent experiments. The assay is classed as cell-based. As for the experimental part:
(§1) For measuring IP accumulation, HEK293 cells grown to 70–80% confluency in 6-well plates were transiently co-transfected using Metafectene Pro (2.5 μl/μg DNA; Biontex) with plasmids containing receptor and/or mock (empty pcDNA3.1) (for endogenous Gq-coupling) using 4 μg total DNA in a ratio of 3:1 following the manufacturer’s instructions. For testing Gα16- and GαΔ6qi4myr-coupling, plasmids encoding the corresponding Gα protein were co-transfected instead of mock. Gα16 is naturally promiscuous and stimulates the phospholipase C (PLC) pathway leading to IP production, while the exchange of the C-terminal four amino acids of Gαq for the corresponding residues of Gαi1 in the chimeric GαΔ6qi4myr confers the ability to couple to Gi/o protein-preferring receptors but still stimulate PLC, thus specifically redirecting downstream cellular signaling. 16 h post transfection, the cells were seeded into white 384-well plates at a density of 20,000 cells/well. Media was removed 24 h later and the cells were incubated with the indicated concentration of peptides for 1 h in HBSS + 20 mM LiCl. IP accumulation was measured with the HTRF-based IP-One Gq kit (Cisbio) on a microplate reader (Tecan Spark).
(§2) For in vitro activation, data is presented as mean ± SEM of at least three independent experiments conducted in technical triplicate. […] For the C. elegans NPRs, we considered the strongest response elicited by any of the peptides downstream of a particular receptor as the receptor’s maximal signal. This may or may not be the biological maximum that can be reached by the ‘true’ endogenous agonist. For the human receptors, the response to the established endogenous agonist reflected the maximal signal.

For the next assay, the target named is T3, Y4R (Homo sapiens, UniProt P50391).
T3 construct: expressed in transfected cells; host or cells: HEK293, transient
As to the kind of experiment: IP accumulation assay, chimeric GαΔ6qi4myr, Y4R. The assay is classed as cell-based. The settings on record: chimeric GαΔ6qi4myr co-transfected, transiently transfected HEK293 cells, mean of at least three independent experiments. As for the experimental part: as §1, §2

The subject of another assay is NPR-6. Briefly: cAMP reporter gene assay, Gi/o (inhibition of forskolin-induced cAMP), NPR-6. The assay is classed as cell-based, C. elegans. The settings on record: for cAMP assay Gi, NPR-6: 4 h, lower = higher Gi/o activity, transfected HEK293, CRE-luciferase, mean of >=3 independent experiments; for cAMP, x-fold of forskolin (mean), NPR-6: 1 µM forskolin set to 1.00, transiently transfected HEK293 cells, mean of at least three independent experiments. The procedure:
Activation of Gs and Gi/o was assessed with a cAMP reporter gene assay. HEK293 cells grown to 70–80% confluency in 6-well plates were transiently co-transfected with vectors encoding the receptor and the cAMP reporter gene plasmid pGL4.29 [luc2P/CRE/Hygro] (Promega; 4 μg total, 1:1 ratio) using Metafectene Pro (3 μl/μg DNA; Biontex) following the manufacturer’s instructions. 16 h post transfection, the cells were seeded into white 384-well plates at a density of 20,000 cells/well. On the next day, the medium was removed and the cells were stimulated with 20 μl of peptide solution (or forskolin as positive control) in serum-free DMEM for 4 h. For measuring Gi/o activity, the peptide solutions additionally contained 1 μM forskolin to elevate cellular cAMP levels. After incubation, the luciferase substrate OneGlo in lysis buffer (Promega) was added and the luminescence was measured in a microplate reader Tecan Spark (Tecan). Data were analyzed with GraphPad Prism 5.03 and are shown as fold of basal or fold of forskolin in case of Gαi/o activity.
as §2

In another assay the target is T4, NPFF1R (Homo sapiens, UniProt Q9GZQ6).
T4 construct: expressed in transfected cells; host or cells: HEK293, transient
Briefly: IP accumulation assay, chimeric GαΔ6qi4myr, NPFF1R. The format is cell-based. The settings on record: chimeric GαΔ6qi4myr co-transfected, transiently transfected HEK293 cells, mean of at least three independent experiments. As for the experimental part: as §1, §2

A further assay deals with T5, Y5R (Homo sapiens, UniProt Q15761).
T5 construct: expressed in transfected cells; host or cells: HEK293, transient
T5 sequence (Q15761 1-445): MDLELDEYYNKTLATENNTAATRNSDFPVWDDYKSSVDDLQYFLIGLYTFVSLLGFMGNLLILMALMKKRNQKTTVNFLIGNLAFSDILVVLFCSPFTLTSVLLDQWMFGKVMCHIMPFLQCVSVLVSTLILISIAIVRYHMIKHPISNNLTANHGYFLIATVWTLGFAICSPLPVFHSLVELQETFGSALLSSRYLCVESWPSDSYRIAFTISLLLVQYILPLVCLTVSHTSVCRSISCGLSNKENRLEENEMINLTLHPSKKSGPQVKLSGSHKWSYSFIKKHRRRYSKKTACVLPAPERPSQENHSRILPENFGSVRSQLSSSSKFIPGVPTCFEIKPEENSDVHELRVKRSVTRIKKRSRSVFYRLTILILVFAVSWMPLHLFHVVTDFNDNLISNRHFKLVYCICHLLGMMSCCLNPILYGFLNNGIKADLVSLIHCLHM
As to the kind of experiment: IP accumulation assay, chimeric GαΔ6qi4myr, Y5R. The following applies: chimeric GαΔ6qi4myr co-transfected, transiently transfected HEK293 cells, mean of at least three independent experiments. The format is cell-based. The procedure:
as §1, §2

The mark [1] stands for this setting: 0.1 µM peptide + 1 µM forskolin (set to 1.00).
The mark [2] stands for this setting: 10 µM peptide + 1 µM forskolin (set to 1.00).

T4 sequence (Q9GZQ6 whole entry): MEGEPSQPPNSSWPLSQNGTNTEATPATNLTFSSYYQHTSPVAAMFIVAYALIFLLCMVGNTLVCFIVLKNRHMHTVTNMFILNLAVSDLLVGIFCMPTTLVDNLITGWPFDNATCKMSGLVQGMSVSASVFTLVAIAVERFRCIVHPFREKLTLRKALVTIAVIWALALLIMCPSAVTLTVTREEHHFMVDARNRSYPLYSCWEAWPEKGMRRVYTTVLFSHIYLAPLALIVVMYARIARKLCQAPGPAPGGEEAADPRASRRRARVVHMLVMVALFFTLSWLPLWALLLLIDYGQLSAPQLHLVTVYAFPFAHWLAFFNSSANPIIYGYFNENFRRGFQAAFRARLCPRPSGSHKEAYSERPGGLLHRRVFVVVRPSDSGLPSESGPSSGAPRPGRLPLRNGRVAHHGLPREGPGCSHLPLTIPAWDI
T3 sequence (P50391 whole entry): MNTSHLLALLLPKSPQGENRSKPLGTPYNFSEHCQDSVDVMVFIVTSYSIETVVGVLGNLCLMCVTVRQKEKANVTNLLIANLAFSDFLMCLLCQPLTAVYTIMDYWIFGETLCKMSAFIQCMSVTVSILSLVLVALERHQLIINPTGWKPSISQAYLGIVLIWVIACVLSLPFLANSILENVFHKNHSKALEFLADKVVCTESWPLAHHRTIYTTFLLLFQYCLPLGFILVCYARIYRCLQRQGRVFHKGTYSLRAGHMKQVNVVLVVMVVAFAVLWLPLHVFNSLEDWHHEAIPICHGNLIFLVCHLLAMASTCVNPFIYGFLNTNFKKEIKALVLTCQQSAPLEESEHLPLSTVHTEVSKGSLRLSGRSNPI

As to “APKPKFIRF-NH2 [FLP-5-1, C. elegans FMRFamide-like peptide, C-terminally amidated, synthesized by SPPS]”, the “cAMP assay Gi, NPR-1” value at NPR-1 (setting [1]) is recorded as 0.58 x-fold of forskolin; on NPR-1 (setting [2]), 0.53 x-fold of forskolin. The “cAMP, x-fold of forskolin (mean), NPR-1” value on NPR-1 (0.1 µM peptide) was 0.54 x-fold of forskolin; on NPR-1 (10 µM peptide) it was 0.50 x-fold of forskolin. The “IP accumulation, x-fold of basal (mean), QRFPR#” value is on record as 0.95 x-fold of basal at QRFPR (0.1 µM peptide) and 1.21 x-fold of basal at QRFPR (10 µM peptide). Also, the “IP accumulation, x-fold of basal (mean), Y4R” value on Y4R (0.1 µM peptide) is recorded as 1.38 x-fold of basal; at Y4R (10 µM peptide), 1.28 x-fold of basal. The “cAMP assay Gi, NPR-6” value was 0.85 x-fold of forskolin in the assay with NPR-6 (setting [1]) and 1.01 x-fold of forskolin in the assay with NPR-6 (setting [2]). In addition, the “cAMP, x-fold of forskolin (mean), NPR-6” value in the assay on NPR-6 (0.1 µM peptide) was 0.84 x-fold of forskolin; with NPR-6 (10 µM peptide), 1.01 x-fold of forskolin. Further, the “IP accumulation, x-fold of basal (mean), NPFF1R” value is listed as 1.48 x-fold of basal at NPFF1R (0.1 µM peptide) and 4.07 x-fold of basal at NPFF1R (10 µM peptide). Besides, the figures for the “IP accumulation, x-fold of basal (mean), Y5R” value on Y5R (0.1 µM peptide) and at Y5R (10 µM peptide) were 0.80 x-fold of basal and 5.88 x-fold of basal, respectively.
